Measurements as given in patent US10238642B2, “Methods for treating neurogenic orthostatic hypotension” (Theravance Biopharma R&D IP, LLC, priority 2016, dated 2019).
Several values for one entry are separate records, joined by “and”; a condition that tells them apart may be missing. Equal values may be shown once.

Key:
[1] = Differential scanning calorimetry; format: physicochemical; conditions: heated 10° C./min from 22° C. to 250° C.
Method: Differential scanning calorimetry (DSC) was performed using a TA Instruments Model Q-100 module with a Thermal Analyst controller. Data were collected and analyzed using TA Instruments Thermal Solutions software. A 2.8 mg sample of the crystalline hydrochloride salt of Example 8 was accurately weighed into a covered aluminum pan. After a 5 minute isothermal equilibration period at 22° C., the sample was heated using a linear heating ramp of 10° C./min from 22° C. to 250° C. A representative DSC thermograph is shown in FIG. 2 of U.S. Pat. No. 8,304,433 B2.

subjects with nOH = assay: Phase 2 clinical study in subjects with nOH, Part A (dose escalation); format: in vivo, human; set-up: key to Improvement in Seated SBP / Improvement in Time Standing / Improvement in Dizziness or Lightheadedness: ✓: Dose-related improvement observed relative to placebo
Text: A Phase 2 clinical trial study is being conducted with 4-[2-(2,4,6-trifluorophenoxymethyl)phenyl]piperidine hydrochloride (“Study Compound”). The study is a multicenter, randomized, two-part, single-(Part A) and double-blind (Part B) study of the Study Compound versus placebo in subjects with nOH. An open-label, extension study to evaluate efficacy, safety and tolerability of the Study Compound will also be conducted (Part C). Part A follows a daily, single, escalating dose design starting with placebo on Day 1, followed by a dose of 1 mg of Study Compound on Day 2, and proceeding to escalating higher doses of Study Compound on a daily basis up to a maximum dose of 10 mg based on safety, tolerability, and determination of a pressor effect.
Subjects included in the study are male or female between the age of 40 and 80 years (inclusive) that have been diagnosed with symptomatic orthostatic hypotension due to pure autonomic failure, multiple system atrophy or Parkinson's disease (i.e., PD plus symptoms). At screening, autonomic function testing is conducted to confirm the diagnosis of autonomic dysfunction including sinus arrhythmia and the Valsalva maneuver.
In Part A, all doses (Study Compound and placebo) are administered in a single-blind manner (i.e., subject remains blinded) using an oral dosing solution. Up to 30 subjects are enrolled in Part A. Two days before the start of Part A, subjects are admitted to the clinical research center (CRC) where they remain during the entire dose escalation period. On Day 1, subjects receive a single dose of placebo. On Day 2, subjects receive a single 1 mg dose of Study Compound. On each subsequent day, subjects receive a single escalating dose of Study Compound as follows: 2.5 mg on Day 3; 5 mg on Day 4; 10 mg on Day 5 unless the following preset stopping criteria occur: • (a) a determination from the Investigator (in collaboration with the Sponsor) that administration of the subsequent next dose may pose a safety concern; • (b) SBP ≥180 mm or DBP ≥110 mm in the sitting position replicated 2 more times over an hour; • (c) intolerable side effects as determined by the Investigator; or • (d) subject receives maximum dose of study medication specified by the protocol.
Once the subject meets any of the above criteria, no further dose escalation is performed. Following a post-dosing observation day in the clinic, the subject is released from the CRC.
Seated and standing systolic blood pressure and completion of an Orthostatic Hypotension Symptom Assessment (OHSA) questionnaire are used to assess efficacy. For Part C, ambulatory blood pressure monitoring is used if available to measure blood pressure every 2 hours for 24-hour period before dosing on Day 1; and 72 to 48 hours before Day 15, Day 29, Day 85 and Day 169 clinic visits. Additionally, blood pressure is taken 20-30 mins before eating each morning about being supine (30 degree elevation) for at least 10 mins.
For both Parts A and B, the primary study endpoint is the difference from placebo of seated systolic blood pressure at 6 to 8 hours after drug administration. For Part A, placebo refers to the Day 1 visit, and the difference from placebo refers to the time-matched difference from each Study Compound dosing day (Days 2 through 5) relative to placebo dosing (Day 1). For Part C, primary study endpoint is improvement in the Likert scale for “dizziness, lightheadedness, feeling faint, or feeling like you might black out” (OHSA question 1) at week 4. […]

other CYP450 enzymes = conditions: cited from earlier work
[2] = individual patient, Part A, oral solution up to 10 mg/day, vs placebo, preliminary

Cl.Fc1cc(F)c(OCc2ccccc2C2CCNCC2)c(F)c1 [4-[2-(2,4,6-Trifluorophenoxymethyl)phenyl]piperidine Hydrochloride]
thermal stability by DSC [1]: excellent thermal stability
MSA patients showing improvement relative to placebo in at least one category (subjects with nOH; MSA patients completing Part A, 6 of 6): 100%
Improvement in Dizziness or Lightheadedness (subjects with nOH; [2]): ✓
Improvement in Time Standing (subjects with nOH; [2]): ✓
Improvement in Seated SBP (subjects with nOH; individual patient, Part A, oral solution up to 10 mg/day, vs placebo, preliminary, Hydrochloride): ✓ (6×) and ✓^2
patients showing an improvement relative to placebo in at least one of seated SBP, standing time, dizziness or lightheadedness (subjects with nOH; patients completing Part A, 10 of 12): 83%

CNCC[C@@H](Oc1ccccc1C)c1ccccc1 [atomoxetine]
impact of inhibition of other CYP450 enzymes on metabolism (other CYP450 enzymes): not significantly impacted
